Values joined by “and” are separate entries in the source; they are usually repeats but may differ in a detail not shown here. Equal values may be shown once. Read-outs that look alike come from different tables or passages of the source.
Assay: Tissue distribution assay
Format: in vivo, mouse
Details: for concentration at 8 h / concentration at 4 h / concentration at 2 h: male, C57/BL6, mouse, po, 20 mg/kg
Procedure: Male C57/BL6 mice (18–20 g, n = 3 in each group) were randomly sorted into treatment groups. Being fasted for 12-h, mice were treated with oral gavage of the compound APC (20 mg/kg, in DMSO/0.5% HMPC, 5/95, v/v). After 2, 4, and 8-h of administration, the animals were sacrificed, respectively, the indicated tissues, including plasma, liver, kidney, muscle, brain, spleen, pancreas, white and brown fat, were collected and preserved at −80 °C. The APC content in samples was analyzed with a liquid chromatography-mass spectrometry/mass spectrometry (LC–MS/MS) system and normalized by protein content.

## CC(C)=CCc1cc(C=CC(=O)O)cc(CC=C(C)C)c1O [APC, 3,5-diprenyl-4-hydroxycinnamic acid]
2–8 h after one oral dose 20 mg/kg
  content of APC in the liver compared with other tissues: highest
Brain, 2H, oral, individual mice, * below the detection line, 2 h after oral dose
  APC content in tissue: 0* ng/g (2×) and 16.430 ng/g
Brain, 4H, oral, individual mice, * below the detection line
  APC content in tissue: 0* ng/g
Brain, 4H, oral, individual mice, * below the detection line, 4 h after oral dose
  APC content in tissue: 1.550 ng/g and 4.810 ng/g
Brain, 8H, oral, individual mice, * below the detection line
  APC content in tissue: 0* ng/g
BrownFat, 2H, oral, individual mice, 2 h after oral dose
  APC content in tissue: 9.800 ng/g and 11.690 ng/g
BrownFat, 4H, oral, individual mice
  APC content in tissue: 9.800 ng/g
BrownFat, 4H, oral, individual mice, 4 h after oral dose
  APC content in tissue: 14.240 ng/g and 144.870 ng/g
BrownFat, 8H, oral, individual mice
  APC content in tissue: 1.740 ng/g and 5.480 ng/g and 3.880 ng/g
Kidney, 2H, oral, individual mice, 2 h after oral dose
  APC content in tissue: 23.340 ng/g and 9.890 ng/g and 11.250 ng/g
Kidney, 4H, oral, individual mice
  APC content in tissue: 9.550 ng/g
Kidney, 4H, oral, individual mice, 4 h after oral dose
  APC content in tissue: 19.740 ng/g and 19.810 ng/g
Kidney, 8H, oral, individual mice
  APC content in tissue: 2.260 ng/g and 4.200 ng/g and 7.700 ng/g
Live (liver), 2H, oral, individual mice, 2 h after oral dose
  APC content in tissue: 703.950 ng/g and 577.440 ng/g
Live (liver), 4H, oral, individual mice
  APC content in tissue: 815.560 ng/g
Live (liver), 4H, oral, individual mice, 4 h after oral dose
  APC content in tissue: 1205.720 ng/g
Live (liver), 8H, oral, individual mice
  APC content in tissue: 287.680 ng/g and 320.280 ng/g
Muscle, 2H, oral, individual mice, 2 h after oral dose
  APC content in tissue: 2.680 ng/g and 4.690 ng/g
Muscle, 4H, oral, individual mice
  APC content in tissue: 13.390 ng/g
Muscle, 4H, oral, individual mice, 4 h after oral dose
  APC content in tissue: 7.190 ng/g
Muscle, 8H, oral, individual mice
  APC content in tissue: 0.000 ng/g and 1.740 ng/g and 1.650 ng/g
Pancreas, 2H, oral, individual mice, 2 h after oral dose
  APC content in tissue: 18.050 ng/g and 11.070 ng/g and 26.740 ng/g
Pancreas, 4H, oral, individual mice
  APC content in tissue: 33.580 ng/g
Pancreas, 4H, oral, individual mice, 4 h after oral dose
  APC content in tissue: 20.040 ng/g and 8.730 ng/g
Pancreas, 8H, oral, individual mice, * below the detection line
  APC content in tissue: 10.890 ng/g and 0* ng/g (2×)
Spleen, 2H, oral, individual mice, 2 h after oral dose
  APC content in tissue: 10.360 ng/g and 16.550 ng/g
Spleen, 4H, oral, individual mice
  APC content in tissue: 12.280 ng/g
Spleen, 4H, oral, individual mice, 4 h after oral dose
  APC content in tissue: 22.450 ng/g
Spleen, 8H, oral, individual mice
  APC content in tissue: 0.000 ng/g and 12.270 ng/g and 10.910 ng/g
WhiteFat, 2H, oral, individual mice, 2 h after oral dose
  APC content in tissue: 10.520 ng/g and 12.290 ng/g
WhiteFat, 4H, oral, individual mice
  APC content in tissue: 42.520 ng/g
WhiteFat, 4H, oral, individual mice, 4 h after oral dose
  APC content in tissue: 32.220 ng/g
WhiteFat, 8H, oral, individual mice
  APC content in tissue: 3.140 ng/g and 8.490 ng/g and 14.550 ng/g
Heart plasma, PO, 2H, individual mice
  APC-PO-heart-plasma: 28.92 ng/mL and 27.48 ng/mL
Heart plasma, PO, 4H, individual mice
  APC-PO-heart-plasma: 64.03 ng/mL and 39.57 ng/mL
Heart plasma, PO, 8H, individual mice
  APC-PO-heart-plasma: 7.56 ng/mL and 19.01 ng/mL and 14.9 ng/mL
brain, Brain, 8H, oral, individual mice, * below the detection line, read-out: APC content in tissue
  concentration at 8 h: 0 ng/g
brain, brain, 4 h after oral, Figure 5l, Y, read-out: average APC content 4 h after oral
  concentration at 4 h: 3.18 ng/g
brain, brain, 4 h after oral, Figure 5l, size of bubble, read-out: average APC content 4 h after oral
  concentration at 4 h: 3.18 ng/g
Brown fat (BF), BF, 4 h after oral, Figure 5l, size of bubble, read-out: average APC content 4 h after oral
  concentration at 4 h: 56.3 ng/g
Brown fat, BF, 4 h after oral, Figure 5l, Y, read-out: average APC content 4 h after oral
  concentration at 4 h: 56.3 ng/g
Brown fat, BrownFat, 2H, oral, individual mice, read-out: APC content in tissue
  concentration at 2 h: 11.1 ng/g
Heart plasma, heart plasma, PO, 2H, individual mice, read-out: APC-PO-heart-plasma
  concentration at 2 h: 32.1 ng/mL
Heart plasma, heart plasma, PO, 4H, average, read-out: avarage APC, APC-PO-heart-plasma
  concentration at 4 h: 48.5 ng/mL
Heart plasma, heart plasma, PO, 4H, individual mice, read-out: APC-PO-heart-plasma
  concentration at 4 h: 41.8 ng/mL
kidney, kidney, 4 h after oral, Figure 5l, Y, read-out: average APC content 4 h after oral
  concentration at 4 h: 16.4 ng/g
kidney, kidney, 4 h after oral, Figure 5l, size of bubble, read-out: average APC content 4 h after oral
  concentration at 4 h: 16.4 ng/g
liver, LIVER, 4 h after oral, Figure 5l, Y, read-out: average APC content 4 h after oral
  concentration at 4 h: 917 ng/g
liver, LIVER, 4 h after oral, Figure 5l, size of bubble, read-out: average APC content 4 h after oral
  concentration at 4 h: 917 ng/g
liver, Live (liver), 2H, oral, individual mice, read-out: APC content in tissue
  concentration at 2 h: 756 ng/g
liver, Live (liver), 4H, oral, individual mice, read-out: APC content in tissue
  concentration at 4 h: 729 ng/g
liver, Live (liver), 8H, oral, individual mice, read-out: APC content in tissue
  concentration at 8 h: 178 ng/g
liver, avarage APC, Live (liver), 2H, oral, average, heading: avarage APC
  concentration at 2 h: 679 ng/g
liver, avarage APC, Live (liver), 4H, oral, average, heading: avarage APC
  concentration at 4 h: 917 ng/g
muscle, Muscle, 2H, oral, individual mice, read-out: APC content in tissue
  concentration at 2 h: 3.77 ng/g
muscle, Muscle, 4H, oral, individual mice, read-out: APC content in tissue
  concentration at 4 h: 6.73 ng/g
muscle, Muscle, 4 h after oral, Figure 5l, Y, read-out: average APC content 4 h after oral
  concentration at 4 h: 9.1 ng/g
muscle, Muscle, 4 h after oral, Figure 5l, size of bubble, read-out: average APC content 4 h after oral
  concentration at 4 h: 9.1 ng/g
pancreas, panc, 4 h after oral, Figure 5l, Y, read-out: average APC content 4 h after oral
  concentration at 4 h: 20.8 ng/g
pancreas, panc, 4 h after oral, Figure 5l, size of bubble, read-out: average APC content 4 h after oral
  concentration at 4 h: 21.2 ng/g
Portal vein plasma, po-portal vein plasma, 4 h after oral, Figure 5l, Y, read-out: average APC content 4 h after oral
  concentration at 4 h: 48.5 ng/g
Portal vein plasma, po-portal vein plasma, 4 h after oral, Figure 5l, size of bubble, read-out: average APC content 4 h after oral
  concentration at 4 h: 48.5 ng/g
spleen, Spleen, 2H, oral, individual mice, read-out: APC content in tissue
  concentration at 2 h: 15.6 ng/g
spleen, Spleen, 4H, oral, individual mice, read-out: APC content in tissue
  concentration at 4 h: 13.8 ng/g
spleen, spleen, 4 h after oral, Figure 5l, Y, read-out: average APC content 4 h after oral
  concentration at 4 h: 16.2 ng/g
